# Assay results taken from US6355799B1, “Substituted benzene compounds, process for their preparation, and herbicidal and defoliant compositions containing them” (ISK Americas Incorporated, priority 1997, dated 2002).
# Key:
# Assay type in all cases: in vivo
# [1] = tested on: redroot pigweed (Amaranthus retroflexus, AMARE); assay: Pre-emerge test, greenhouse herbicide activity screening; settings: pre-emerge, rated 14 days after application, 0 = no damage, 100 = complete death
# In short: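 Visual ratings on a 0-100 scale (0 no damage, 100 all plants dead) were taken at 14 days after treatment. Rates of 15-1000 g ai/ha in acetone, 187 l/ha, were sprayed onto soil one day after planting (pre-emerge) or onto 2-3 leaf plants with 0.25% v/v surfactant (post-emerge).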
# [2] = tested on: barnyardgrass (Echinochloa crus-galli, ECHCG); assay: as above; settings: pre-emerge, rated 14 days after application, 0 = no damage, 100 = complete death
# In short: (§1)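 Sandy loam pots; pre-emerge: sown 1 d pre-spray, surface-watered after, then bottom-watered. Post-emerge: sown 8–21 d before, 2–3 leaf stage, + 0.25% v/v NIS, bottom-watered. Acetone, 187 l/ha track spray, 15–1000 g ai/ha. 0–100 injury score, day 14.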
# [3] = tested on: common ragweed (Ambrosia artemisizfolia L., AMBEL); assay: as above; settings: pre-emerge, rated 14 days after application, 0 = no damage, 100 = complete death
# In short: as §1
# [4] = tested on: green foxtail (Setaria viridis, SETVI); assay: as above; settings: pre-emerge, rated 14 days after application, 0 = no damage, 100 = complete death
# In short: as §1
# [5] = tested on: ivyleaf morningglory (Ipomoea hederacea, IPOHE); assay: as above; settings: pre-emerge, rated 14 days after application, 0 = no damage, 100 = complete death
# In short: as §1
# [6] = tested on: johnsongrass (Sorghum halepense, SORHA); assay: as above; settings: pre-emerge, rated 14 days after application, 0 = no damage, 100 = complete death
# In short: as §1
# [7] = tested on: lambsquarters (Chenopodium album, CHEAL); assay: as above; settings: pre-emerge, rated 14 days after application, 0 = no damage, 100 = complete death
# In short: as §1
# [8] = tested on: large crabgrass (Digitaria sanguinalis, DIGSA); assay: as above; settings: pre-emerge, rated 14 days after application, 0 = no damage, 100 = complete death
# In short: as §1
# [9] = tested on: sicklepod (Cassia obtusifolia, CASOB); assay: as above; settings: pre-emerge, rated 14 days after application, 0 = no damage, 100 = complete death
# In short: as §1
# [10] = tested on: velvetleaf (Abutilon theophrasti, ABUTH); assay: as above; settings: pre-emerge, rated 14 days after application, 0 = no damage, 100 = complete death
# In short: as §1
# [11] = tested on: field corn (Zea mays L., var. Dekalb 535, CORN); assay: Pre-emerge test, crop safety; settings: pre-emerge, rated 14 days after application, 0 = no damage, 100 = complete death
# In short: (§2)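 Applied at 15–1000 g ai/ha from acetone in 187 l/ha spray volume. Post-emergence applications included 0.25% v/v non-ionic surfactant and reached plants sown 8–21 days before. Pre-emergence applications were incorporated by surface watering. Efficacy or crop damage was rated on a 0–100 scale after 14 days.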
# [12] = tested on: upland rice (Oryza sp., var. Tebonnet, RICE); assay: Pre-emerge test, crop safety; settings: pre-emerge, rated 14 days after application, 0 = no damage, 100 = complete death
# In short: as §2
# [13] = tested on: barnyardgrass (Echinochloa crus-galli, ECHCG); assay: Post-emerge test, greenhouse herbicide activity screening; settings: phytotoxicity rating 0-100 (0 no damage, 100 complete death), 14 days after application
# In short: (§3)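 Fourteen days after spraying, crop and weed injury was graded visually from 0, no effect, to 100, every plant dead. Test substances were dissolved in acetone and applied at 15–1000 g ai/ha with a flat-fan nozzle. Application was either pre-emergence, one day after sowing, or post-emergence at the 2–3 leaf stage.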
# [14] = tested on: common ragweed (Ambrosia artemisizfolia L., AMBEL); assay: as above; settings: phytotoxicity rating 0-100 (0 no damage, 100 complete death), 14 days after application
# In short: as §3
# [15] = tested on: green foxtail (Setaria viridis, SETVI); assay: as above; settings: phytotoxicity rating 0-100 (0 no damage, 100 complete death), 14 days after application
# In short: as §3
# [16] = tested on: ivyleaf morningglory (Ipomoea hederacea, IPOHE); assay: as above; settings: phytotoxicity rating 0-100 (0 no damage, 100 complete death), 14 days after application
# In short: as §3
# [17] = tested on: johnsongrass (Sorghum halepense, SORHA); assay: as above; settings: phytotoxicity rating 0-100 (0 no damage, 100 complete death), 14 days after application
# In short: as §3
# [18] = tested on: lambsquarters (Chenopodium album, CHEAL); assay: as above; settings: phytotoxicity rating 0-100 (0 no damage, 100 complete death), 14 days after application
# In short: as §3
# [19] = tested on: large crabgrass (Digitaria sanguinalis, DIGSA); assay: as above; settings: phytotoxicity rating 0-100 (0 no damage, 100 complete death), 14 days after application
# In short: as §3
# [20] = tested on: redroot pigweed (Amaranthus retroflexus, AMARE); assay: as above; settings: phytotoxicity rating 0-100 (0 no damage, 100 complete death), 14 days after application
# In short: as §3
# [21] = tested on: sicklepod (Cassia obtusifolia, CASOB); assay: as above; settings: phytotoxicity rating 0-100 (0 no damage, 100 complete death), 14 days after application
# In short: as §3
# [22] = tested on: velvetleaf (Abutilon theophrasti, ABUTH); assay: as above; settings: phytotoxicity rating 0-100 (0 no damage, 100 complete death), 14 days after application
# In short: as §3
# [23] = tested on: field corn (Zea mays L., var. Dekalb 535, CORN); assay: Post-emerge test, crop safety; settings: phytotoxicity rating 0-100 (0 no damage, 100 complete death), 14 days after application
# In short: as §1
# [24] = tested on: upland rice (Oryza sp., var. Tebonnet, RICE); assay: Post-emerge test, crop safety; settings: phytotoxicity rating 0-100 (0 no damage, 100 complete death), 14 days after application
# In short: as §1
smiles,measurement,setting,value
COc1c(Cl)cc(F)c(-n2c(=O)cc(C(F)(F)F)n(C)c2=O)c1NC(=O)C(F)(F)F [2-10],"Pre-emerge Herbicidal Activity AMARE (phytotoxicity rating, scale 0-100)",[1]; 63 g ai/ha,50
same,"Pre-emerge Herbicidal Activity AMARE (phytotoxicity rating, scale 0-100)",[1]; 250 g ai/ha,100
same,"Pre-emerge Herbicidal Activity ECHCG (phytotoxicity rating, scale 0-100)",[2]; 63 g ai/ha,0
same,"Pre-emerge Herbicidal Activity ECHCG (phytotoxicity rating, scale 0-100)",[2]; 250 g ai/ha,95
same,"Pre-emerge Herbicidal Activity AMBEL (phytotoxicity rating, scale 0-100)",[3]; 63 g ai/ha,100
same,"Pre-emerge Herbicidal Activity AMBEL (phytotoxicity rating, scale 0-100)",[3]; 250 g ai/ha,100
same,"Pre-emerge Herbicidal Activity SETVI (phytotoxicity rating, scale 0-100)",[4]; 63 g ai/ha,40
same,"Pre-emerge Herbicidal Activity SETVI (phytotoxicity rating, scale 0-100)",[4]; 250 g ai/ha,100
same,"Pre-emerge Herbicidal Activity IPOHE (phytotoxicity rating, scale 0-100)",[5]; 63 g ai/ha,60
same,"Pre-emerge Herbicidal Activity IPOHE (phytotoxicity rating, scale 0-100)",[5]; 250 g ai/ha,100
same,"Pre-emerge Herbicidal Activity SORHA (phytotoxicity rating, scale 0-100)",[6]; 63 g ai/ha,0
same,"Pre-emerge Herbicidal Activity SORHA (phytotoxicity rating, scale 0-100)",[6]; 250 g ai/ha,80
same,"Pre-emerge Herbicidal Activity CHEAL (phytotoxicity rating, scale 0-100)",[7]; 63 g ai/ha,100
same,"Pre-emerge Herbicidal Activity CHEAL (phytotoxicity rating, scale 0-100)",[7]; 250 g ai/ha,100
same,"Pre-emerge Herbicidal Activity DIGSA (phytotoxicity rating, scale 0-100)",[8]; 63 g ai/ha,90
same,"Pre-emerge Herbicidal Activity DIGSA (phytotoxicity rating, scale 0-100)",[8]; 250 g ai/ha,95
same,"Pre-emerge Herbicidal Activity CASOB (phytotoxicity rating, scale 0-100)",[9]; 63 g ai/ha,50
same,"Pre-emerge Herbicidal Activity CASOB (phytotoxicity rating, scale 0-100)",[9]; 250 g ai/ha,90
same,"Pre-emerge Herbicidal Activity ABUTH (phytotoxicity rating, scale 0-100)",[10]; 63 g ai/ha,100
same,"Pre-emerge Herbicidal Activity ABUTH (phytotoxicity rating, scale 0-100)",[10]; 250 g ai/ha,100
same,"Pre-emerge crop damage CORN (phytotoxicity rating, scale 0-100)",[11]; 63 g ai/ha,0
same,"Pre-emerge crop damage CORN (phytotoxicity rating, scale 0-100)",[11]; 250 g ai/ha,40
same,"Pre-emerge crop damage RICE (phytotoxicity rating, scale 0-100)",[12]; 63 g ai/ha,0
same,"Pre-emerge crop damage RICE (phytotoxicity rating, scale 0-100)",[12]; 250 g ai/ha,30
same,Post-emerge Herbicidal Activity ECHCG,[13]; 63 g ai/ha,0
same,Post-emerge Herbicidal Activity ECHCG,[13]; 250 g ai/ha,60
same,Post-emerge Herbicidal Activity AMBEL,[14]; 63 g ai/ha,0
same,Post-emerge Herbicidal Activity AMBEL,[14]; 250 g ai/ha,50
same,Post-emerge Herbicidal Activity SETVI,[15]; 63 g ai/ha,0
same,Post-emerge Herbicidal Activity SETVI,[15]; 250 g ai/ha,70
same,Post-emerge Herbicidal Activity IPOHE,[16]; 63 g ai/ha,60
same,Post-emerge Herbicidal Activity IPOHE,[16]; 250 g ai/ha,100
same,Post-emerge Herbicidal Activity SORHA,[17]; 63 g ai/ha,0
same,Post-emerge Herbicidal Activity SORHA,[17]; 250 g ai/ha,20
same,Post-emerge Herbicidal Activity CHEAL,[18]; 63 g ai/ha,50
same,Post-emerge Herbicidal Activity CHEAL,[18]; 250 g ai/ha,90
same,Post-emerge Herbicidal Activity DIGSA,[19]; 63 g ai/ha,0
same,Post-emerge Herbicidal Activity DIGSA,[19]; 250 g ai/ha,40
same,Post-emerge Herbicidal Activity AMARE,[20]; 63 g ai/ha,0
same,Post-emerge Herbicidal Activity AMARE,[20]; 250 g ai/ha,30
same,Post-emerge Herbicidal Activity CASOB,[21]; 63 g ai/ha,0
same,Post-emerge Herbicidal Activity CASOB,[21]; 250 g ai/ha,10
same,Post-emerge Herbicidal Activity ABUTH,[22]; 63 g ai/ha,95
same,Post-emerge Herbicidal Activity ABUTH,[22]; 250 g ai/ha,100
same,Post-emerge Herbicidal Activity CORN (crop damage),[23]; 63 g ai/ha,5
same,Post-emerge Herbicidal Activity CORN (crop damage),[23]; 250 g ai/ha,0
same,Post-emerge Herbicidal Activity RICE (crop damage),[24]; 63 g ai/ha,0
same,Post-emerge Herbicidal Activity RICE (crop damage),[24]; 250 g ai/ha,5
